Measured values as given in ChEMBL document CHEMBL5352452, “Design, synthesis and pharmacological evaluation of β-carboline derivatives as potential antitumor agent via targeting autophagy” (Eur J Med Chem, 2023).
Active and inactive are the calls of the source. The rule behind the calls is not given here.

Assays:
HCT-116 [1] = assay: Induction of apoptosis in human HCT-116 cells assessed as early apoptotic cells at 2 uM incubated for 24 hrs in presence of Z-VAD-FMK by annexin V FITC/propidium iodide staining based flow cytometry (reference value: 6.3 %); format: functional
HCT-116 [2] = assay: Induction of autophagy in human HCT-116 cells assessed as increase in LC3-II expression upto 5 uM incubated for 24 hrs by Western blot analysis; format: functional, cell-based
HCT-116 [3] = assay: Induction of apoptosis in human HCT-116 cells assessed as early apoptotic cells at 1 uM incubated for 24 hrs by annexin V FITC/propidium iodide staining based flow cytometry (reference value: 4.7%); format: functional
HCT-116 [4] = assay: Induction of apoptosis in human HCT-116 cells assessed as necrotic cells at 2 uM incubated for 24 hrs by annexin V FITC/propidium iodide staining based flow cytometry (reference value: 7.7%); format: functional
HCT-116 [5] = assay: Upregulation of IFN-alpha response pathway in human HCT-116 cells at 2 uM incubated for 24 hrs by RNA sequencing analysis; format: functional, cell-based
HCT-116 [6] = assay: Induction of apoptosis in human HCT-116 cells assessed as increase in caspase 3 expression upto 5 uM incubated for 24 hrs by Western blot analysis; format: functional, cell-based
HCT-116 [7] = assay: Induction of apoptosis in human HCT-116 cells assessed as viable cells at 1 uM incubated for 24 hrs in presence of Z-VAD-FMK by annexin V FITC/propidium iodide staining based flow cytometry (reference value: 86.2 %); format: functional; conditions: read-out: Activity
HCT-116 [8] = assay: Induction of autophagy in human HCT-116 cells assessed as increase in p62 expression upto 5 uM incubated for 24 hrs by Western blot analysis; format: functional, cell-based
SK-OV-3 = assay: Antiproliferative activity against human SK-OV-3 cells assessed as inhibition of cell growth measured after 48 hrs by MTT assay; format: functional, cell-based; conditions: SK-OV-3, 48 h
HCT-116 [9] = assay: Induction of apoptosis in human HCT-116 cells assessed as early apoptotic cells at 2 uM incubated for 24 hrs by annexin V FITC/propidium iodide staining based flow cytometry (reference value: 4.7%); format: functional
HCT-116 [10] = assay: Induction of apoptosis in human HCT-116 cells assessed as late apoptotic cells at 2 uM incubated for 24 hrs by annexin V FITC/propidium iodide staining based flow cytometry (reference value: 4.6%); format: functional
KB = assay: Antiproliferative activity against human KB cells assessed as inhibition of cell growth measured after 48 hrs by MTT assay; format: functional, cell-based
HCT-116 [11] = assay: Induction of apoptosis in human HCT-116 cells assessed as increase in LC3-II expression upto 4 uM incubated for 24 hrs by Western blot analysis; format: functional, cell-based
HCT-116 [12] = assay: Induction of apoptosis in human HCT-116 cells assessed as increase in cleaved caspase 3 expression upto 5 uM incubated for 24 hrs by Western blot analysis; format: functional, cell-based
HCT-116 [13] = assay: Induction of autophagy in human HCT-116 cells assessed as increase in p62 expression at 3 uM measured upto 36 hrs by Western blot analysis; format: functional, cell-based
CWR22R = assay: Antiproliferative activity against human 22Rv1 cells assessed as inhibition of cell growth measured after 48 hrs by MTT assay; format: functional, cell-based; conditions: 22Rv1, 48 h
HCT-116 [14] = assay: Upregulation of inflammatory response gene in human HCT-116 cells at 2 uM incubated for 24 hrs by RNA sequencing analysis; format: functional, cell-based
786-0 = assay: Antiproliferative activity against human 786-0 cells assessed as inhibition of cell growth measured after 48 hrs by MTT assay; format: functional, cell-based; conditions: 786-0, 48 h
HCT-116 [15] = assay: Downregulation of Myc-v2 in human HCT-116 cells at 2 uM incubated for 24 hrs by RNA sequencing analysis; format: functional, cell-based
HCT-116 [16] = assay: Induction of morphological changes in human HCT-116 cells assessed as reduction in intercellular contact at 2 to 6 uM measured after 24 hrs by microscopic analysis; format: functional, cell-based; conditions: dose 2-6 µM
HCT-116 [17] = assay: Induction of apoptosis in ATG7 knockout human HCT-116 cells assessed as increase in caspase 3 expression upto 4 uM incubated for 24 hrs by Western blot analysis; format: functional, cell-based
HCT-116 [18] = assay: Induction of apoptosis in human HCT-116 cells assessed as late apoptotic cells at 2 uM incubated for 24 hrs in presence of Z-VAD-FMK by annexin V FITC/propidium iodide staining based flow cytometry (reference value: 4.6 %); format: functional
HCT-116 [19] = assay: Induction of apoptosis in human HCT-116 cells assessed as viable cells at 2 uM incubated for 24 hrs in presence of Z-VAD-FMK by annexin V FITC/propidium iodide staining based flow cytometry (reference value: 86.2 %); format: functional; conditions: read-out: Activity
HT-29 = assay: Antiproliferative activity against human HT-29 cells assessed as inhibition of cell growth measured after 48 hrs by MTT assay; format: functional, cell-based; conditions: HT-29, 48 h
HCT-116 [20] = assay: Downregulation of mTORC1 signaling pathway in human HCT-116 cells at 2 uM incubated for 24 hrs by RNA sequencing analysis; format: functional, cell-based
HCT-116 [21] = assay: Upregulation of hedgehog signaling pathway in human HCT-116 cells at 2 uM incubated for 24 hrs by RNA sequencing analysis; format: functional, cell-based
HCT-116 [22] = assay: Induction of autophagy in ATG7 knockout human HCT-116 cells assessed as increase in LC3-II expression upto 4 uM measured after 24 hrs by Western blot analysis; format: functional, cell-based
HCT-116 [23] = assay: Downregulation of oxidative phosphorylation gene in human HCT-116 cells at 2 uM incubated for 24 hrs by RNA sequencing analysis; format: functional, cell-based
HCT-116 [24] = assay: Induction of apoptosis in human HCT-116 cells assessed as necrotic cells at 2 uM incubated for 24 hrs in presence of Z-VAD-FMK by annexin V FITC/propidium iodide staining based flow cytometry (reference value: 2.9 %); format: functional
HCT-116 [25] = assay: Induction of apoptosis in human HCT-116 cells assessed as viable cells at 2 uM incubated for 24 hrs by annexin V FITC/propidium iodide staining based flow cytometry (reference value: 83 %); format: functional; conditions: read-out: Activity
CT26 [26] = assay: Antitumor activity against […] CT26 cells xenografted in C57BL/6 mouse assessed as reduction in tumor weight at 45 mg/kg, ip administered once every two days measured after 16 days; format: functional; set-up: scale not given: the % may be the effect or the level left; conditions: time 16 day
A-375 = assay: Antiproliferative activity against human A-375 cells assessed as inhibition of cell growth measured after 48 hrs by MTT assay; format: functional, cell-based; conditions: A-375, 48 h
CT26 [27] = assay: Antitumor activity against […] CT26 cells xenografted in C57BL/6 mouse assessed as reduction in tumor volume at 45 mg/kg, ip administered once every two days measured after 8 days; format: functional, organism-based; conditions: time 8.0 day
HCT-116 [28] = assay: Antiproliferative activity against p53 knockout human HCT-116 cells assessed as inhibition of cell growth measured after 24 hrs by CCK-8 assay; format: functional, cell-based; conditions: HCT-116, 24 h
HCT-116 [29] = assay: Induction of apoptosis in human HCT-116 cells assessed as late apoptotic cells at 1 uM incubated for 24 hrs by annexin V FITC/propidium iodide staining based flow cytometry (reference value: 4.6%); format: functional
HCT-116 [30] = assay: Induction of apoptosis in p53 knockout human HCT-116 cells assessed as increase in caspase 3 expression upto 5 uM incubated for 24 hrs by Western blot analysis; format: functional, cell-based
HCT-116 [31] = assay: Induction of apoptosis in human HCT-116 cells assessed as viable cells at 1 uM incubated for 24 hrs by annexin V FITC/propidium iodide staining based flow cytometry (reference value: 83 %); format: functional; conditions: read-out: Activity

- IC50 (SK-OV-3): 10.6 µM
- IC50 (KB): 8.12 µM
- IC50 (786-0): 2.71 µM
- IC50 (HT-29): 2.02 µM
- IC50 (A-375): 11.5 µM
- IC50 (HCT-116 [28]): 4.71 µM
Compound: CN1CCN(Cc2cc3c4ccccc4n(CCCc4ccccc4)c3c(CN3CCN(C)CC3)n2)CC1
- Activity (HCT-116 [1]): 5.4%
- Activity (HCT-116 [2]): Active
- Activity (HCT-116 [3]): 5.1%
- Activity (HCT-116 [4]): 4.9%
- Activity (HCT-116 [5]): Active
- Activity (HCT-116 [6]): inactive
- viability at 1 µM (HCT-116 [7]): 84.8%
- Activity (HCT-116 [8]): Active
- Activity (HCT-116 [9]): 6.2%
- Activity (HCT-116 [10]): 6.8%
- Activity (HCT-116 [11]): Active
- Activity (HCT-116 [12]): inactive
- Activity (HCT-116 [13]): Active
- IC50 (CWR22R): 3.86 µM
- Activity (HCT-116 [14]): Active
- Activity (HCT-116 [15]): Active
- Activity (HCT-116 [16]): Active
- Activity (HCT-116 [17]): inactive
- Activity (HCT-116 [18]): 4.6%
- viability at 2 µM (HCT-116 [19]): 83.7%
- Activity (HCT-116 [20]): Active
- Activity (HCT-116 [21]): Active
- Activity (HCT-116 [22]): inactive
- Activity (HCT-116 [23]): Active
- Activity (HCT-116 [24]): 6.3%
- viability at 2 µM (HCT-116 [25]): 82.1%
- Activity (CT26 [26]): 69.69%
- Activity (CT26 [27]): Active
- Activity (HCT-116 [29]): 5.6%
- Activity (HCT-116 [30]): inactive
- viability at 1 µM (HCT-116 [31]): 83.3%
